Test results as given in patent US20110262996A1, “METHODS AND MATERIALS FOR DEGRADING PYRETHROID” (DANISCO A/S, priority 2008, published 2011).

Biological target: T1, organophosphate hydrolase (OPH) (Brevundimonas diminuta, UniProt P0A434)
T1 construct: purchased Genencor DEFENZ 130G, lot 102-6181-001
Experiment: Time course of permethrin degradation by OPH, permethrin quantified by GCMS
Assay type: biochemical
Conditions: for Amount of Permethrin measured: 5 μL of 0.31 mg/mL OPH added to 995 μL of 2.5 mg/mL permethrin, pH 8.5, 22° C., ppm at the detector
Protocol: OPH was assayed for the ability to degrade permethrin. Its efficacy has been measured by performing time course experiments wherein a sample of OPH is added to a sample of permethrin. Degraded permethrin is then separated from the reaction mixture and detected on a GCMS.
Experimental Methods and Equipment. A Shimadzu GC2010 Gas Chromatograph with AOC 20i Auto Injector and a Shimadzu GCMS QP2010S Quadrapole Mass Spectrometer were used to analyze the experimental samples. A Supelco Equity-5 column was used (length: 30.0 m, thickness: 0.25 μm, diameter: 0.25 mm) for the assays. However, analogous columns may be substituted.
The equipment was run with the following parameters: • column oven temperature: 120° C. • injector temperature: 250° C. • injection: splitless • pre-run rinses: 3 • post-run rinses: 3 • sample rinses: 2 • linear velocity: 30 cm/sec • column flow: 0.64 mL/min • split ratio: 10 • detector voltage: relative to tuning • ion source temperature: 250° C. • interface temperature: 270° C. • solvent cut time: 3 min • run time: 35 min • temperature ramp: 5° C./min • scan speed: 833
Experimental assays were run using recombinant OPH (DEFENZ™ 130G, lot 102-6181-001; Genencor). Reagents included ammonium carbonate (Sigma 207861, lot 12919JC), cobalt chloride (JT Baker 1670-04, lot Y41640), hydrochloric acid (JT Baker 5620-02, lot A23506), propanol (Sigma 154970, lot 04242AD), and permethrin (Sigma-Pestanal 45614, lot 7079×).
Preparation of Enzyme Samples. OPH enzyme granules (2% protein) were dissolved in 33 mM ammonium carbonate buffer, pH 8.5, at 22° C. The reaction mixture was agitated for 30 minutes, first vortexed, then slowly agitated on a temperature-controlled platform shaker. A 1.5 mL sample of the enzyme solution was taken and centrifuged for 1 minute at 13,000 rpm. An aliquot of the resulting supernatant is used in the pesticide degradation reaction.
Preparation of Permethrin Samples. A stock permethrin sample at a concentration of 100 mg/mL was made by dissolving an appropriate amount of permethrin standard into propanol. The stock sample was stored under refrigeration. For generating standard curves on the GCMS, permethrin standards were made by diluting an aliquot of the stock permethrin sample into propanol to achieve a concentration of 1 mg/mL and 10 mg/mL. Permethrin to be used in the enzyme reaction was prepared by diluting an aliquot of the stock solution into 33 mM ammonium carbonate buffer at the desired pH for a particular reaction, and at room temperature.
Enzyme Reactions. In a 1.5 mL tube, 250 μL of a 10 mg/mL permethrin solution in propanol was added to 0.75 mL of 33 mM ammonium carbonate buffer, pH 8.5. A 995 μL aliquot of the permethrin solution was placed in a 1.5 mL gas chromatography (GC) sample vial, to which was added a 5 μL aliquot of a 0.31 mg/mL OPH enzyme solution. To inactivate the reaction at any specific time point, a 10 μL aliquot of the reaction solution was removed and added to 990 μL of propanol in a GC sample vial. These samples were then loaded on the GCMS autosampler.
Results and Discussion. This study was conducted to determine whether OPH degrades permethrin. To quantitatively measure amounts of permethrin, the Shimadzu GC with Quadrapole MS detector was used, as in previous pesticide experiments. A standard curve was generated using 1 mg/mL and 10 mg/mL stock solutions in propanol. Regression of the standard curve yielded R2 values of 0.9997 above 50 ppm and of 0.998 below 50 ppm.
Preliminary experiments were conducted to ascertain optimum concentrations for the enzyme reactions. […] Samples were taken at time points of 0, 1, 5, 15, and 30 minutes by removing 10 μL of the reaction mixture and adding it to 990 μL of propanol. […]

SMILES: CC1(C)C(C=C(Cl)Cl)C1C(=O)OCc1cccc(Oc2ccccc2)c1 (stereo not shown) [permethrin]
- degraded amount of permethrin at the detector (after 30 minutes): 12 ppm
- Amount of Permethrin measured (time 0 min): 31.47 ppm
- Amount of Permethrin measured (time 1 min): 25.8 ppm
- Amount of Permethrin measured (time 5 min): 25.88 ppm
- Amount of Permethrin measured (time 15 min): 24.64 ppm
- Amount of Permethrin measured (time 30 min): 19.27 ppm
- initial, rapid degradation of permethrin at the detector (within 1 minute of the start of the reaction): approximately 6 ppm
